This is an account of results in patent US9624241B2 (Incyte Corporation, priority 2013, dated 2017).

Usually pIC50 stands for the IC50 on a negative log10 scale, so that one unit is a factor of ten.

Holding throughout (assay type): binding
Assay [1] deals with T1, BRD4-BD1 (Homo sapiens (Human), UniProt O60885). The assay is described as follows: BRD4 AlphaScreen Assay (Example A1), BRD4-BD1. The conditions noted are these: Assay A1, 3.8 nM BRD4-BD1, 50 nM H4Ac4 peptide; read-out: BRD4 BD-1 enzyme IC50. How it is done: (§1) BRD4-BD1 and BRD4-BD2 assays were conducted in white 384-well polystyrene plate in a final volume of 20 μL for BD1 and 40 μL for BD2. Inhibitors were first serially diluted in DMSO and added to the plate wells before the addition of other reaction components. […] After plate sealing, the plate was incubated in the dark at room temperature for 75 min. before reading on a PHERAstar FS plate reader (BMG Labtech). IC50 determination was performed by fitting the curve of percent control activity versus the log of the inhibitor concentration using the GraphPad Prism 5.0 software.

Assay [2] addresses T2, BRD4-BD2 (Homo sapiens (Human), UniProt O60885). Put plainly: BRD4 AlphaScreen Assay (Example A1), BRD4-BD2. The note with it: Assay A1, 20 nM BRD4-BD2, 50 nM H4Ac4 peptide; read-out: BRD4 BD-2 enzyme IC50. How it is done:
as §1
On the technique in general: Alpha assays give light when donor and acceptor beads are brought close together.

Assay [3] deals with T1, BRD4-BD1. Put plainly: BRD4 AlphaScreen Assay (Example A2), BRD4-BD1. The note with it: Assay A2, AlphaScreen, BRD4-BD1; read-out: BRD4 BD-1 enzyme IC50. A digest of the protocol: (§2)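 Displacement of 50 nM biotinylated tetra-acetylated histone H4 peptide from BRD4 BD1 or BD2 (<1 nM) in Tris-HCl pH 7.5 buffer with DTT. Inhibitors serially diluted in DMSO, added first, then incubated 75 min in the dark at room temperature before AlphaScreen read. IC50 fitted from percent control activity versus log concentration.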

Assay [4] has as its target T2, BRD4-BD2. Put plainly: BRD4 AlphaScreen Assay (Example A2), BRD4-BD2. The conditions noted are these: Assay A2, AlphaScreen, BRD4-BD2; read-out: BRD4 BD-2 enzyme IC50. A digest of the protocol: as §2

The structures appear in SMILES notation. pIC50: −log10 of the molar value.

In the case of `Cc1noc(C)c1-c1ccc2[nH]c(=O)n3c2c1OCC3c1ccccn1` (single isomer, unassigned) [Example 14, 7-(3,5-Dimethylisoxazol-4-yl)-4-pyridin-2-yl-4,5-dihydroimidazo[1,5,4-de][1,4]benzoxazin-2(1H)-one], the pIC50 in assay [1] and in assay [2] was 5.00 to 6.00 throughout.

`Cc1noc(C)c1-c1ccc2[nH]c(=O)n3c2c1OCC3C1CCCO1` (single isomer, unassigned) [Example 18A, 7-(3,5-Dimethylisoxazol-4-yl)-4-(tetrahydrofuran-2-yl)-4,5-dihydroimidazo[1,5,4-de][1,4]benzoxazin-2(1H)-one]: the pIC50 in assay [1] is 6.00 to 7.00; in assay [2] it was more than 7.00.

`Cc1noc(C)c1-c1ccc2[nH]c(=O)n3c2c1OCC3C1CCCO1` (single isomer, unassigned) [Example 18B, 7-(3,5-Dimethylisoxazol-4-yl)-4-(tetrahydrofuran-2-yl)-4,5-dihydroimidazo[1,5,4-de][1,4]benzoxazin-2(1H)-one]: the pIC50 in assay [1] was 6.00 to 7.00; in assay [2] it was more than 7.00.

Take `Cc1noc(C)c1-c1ccc2nc(NC(C)CO)n3c2c1OCC3c1ccccc1` (single isomer, unassigned) [Example 30, 2-{[7-(3,5-Dimethylisoxazol-4-yl)-4-phenyl-4,5-dihydroimidazo[1,5,4-de][1,4]benzoxazin-2-yl]amino}propan-1-ol]: the pIC50 in assay [1] and in assay [2] was more than 7.00 each time.

Take `Cc1noc(C)c1-c1ccc2nc(NC(C)CO)n3c2c1OCC3c1ccccc1` (single isomer, unassigned) [Example 31, 2-{[7-(3,5-Dimethylisoxazol-4-yl)-4-phenyl-4,5-dihydroimidazo[1,5,4-de][1,4]benzoxazin-2-yl]amino}propan-1-ol]: the pIC50 in assay [1] and in assay [2] was more than 7.00 in each case.

For `Cc1noc(C)c1-c1ccc2c3c1OCC(c1ccccc1)n3c(=O)n2C` (centres unmarked) [Example 2, 7-(3,5-Dimethylisoxazol-4-yl)-1-methyl-4-phenyl-4,5-dihydroimidazo[1,5,4-de][1,4]benzoxazin-2(1H)-one], the pIC50 in assay [1] and in assay [2] was more than 7.00 in each case.

Consider `Cc1noc(C)c1-c1ccc2[nH]c(=O)n3c2c1OC(C)C3c1ccccc1` (centres unmarked) [Example 3, 7-(3,5-Dimethylisoxazol-4-yl)-5-methyl-4-phenyl-4,5-dihydroimidazo[1,5,4-de][1,4]benzoxazin-2(1H)-one], for which the pIC50 in assay [1] and in assay [2] was more than 7.00 each time.

On to `Cc1noc(C)c1-c1ccc2[nH]c(=O)n3c2c1OCC3c1ccc(C#N)cc1` (centres unmarked) [Example 4, 4-[7-(3,5-Dimethylisoxazol-4-yl)-2-oxo-1,2,4,5-tetrahydroimidazo[1,5,4-de][1,4]benzoxazin-4-yl]benzonitrile], for which the pIC50 in assay [1] and in assay [2] was more than 7.00 throughout.

On to `Cc1noc(C)c1-c1ccc2[nH]c(=O)n3c2c1OCC3c1cccnc1` (centres unmarked) [Example 5, 7-(3,5-Dimethylisoxazol-4-yl)-4-pyridin-3-yl-4,5-dihydroimidazo[1,5,4-de][1,4]benzoxazin-2(1H)-one], for which the pIC50 in assay [1] and in assay [2] was more than 7.00 in each case.

For `COc1cccc(C2COc3c(-c4c(C)noc4C)ccc4[nH]c(=O)n2c34)c1` (centres unmarked) [Example 6, 7-(3,5-Dimethylisoxazol-4-yl)-4-(3-methoxyphenyl)-4,5-dihydroimidazo[1,5,4-de][1,4]benzoxazin-2(1H)-one], the pIC50 in assay [1] and in assay [2] was more than 7.00 throughout.

Consider `COc1ccccc1C1COc2c(-c3c(C)noc3C)ccc3[nH]c(=O)n1c23` (centres unmarked) [Example 7, 7-(3,5-Dimethylisoxazol-4-yl)-4-(2-methoxyphenyl)-4,5-dihydroimidazo[1,5,4-de][1,4]benzoxazin-2(1H)-one], for which the pIC50 in assay [1] and in assay [2] was more than 7.00 in each case.

Take `Cc1noc(C)c1-c1ccc2[nH]c(=O)n3c2c1OCC3c1ccc(F)cc1F` (centres unmarked) [Example 8, 7-(3,5-Dimethylisoxazol-4-yl)-4-(2,4-difluorophenyl)-4,5-dihydroimidazo[1,5,4-de][1,4]benzoxazin-2(1H)-one]: the pIC50 in assay [1] and in assay [2] was more than 7.00 throughout.

On to `Cc1noc(C)c1-c1ccc2nc(C)n3c2c1OCC3c1ccccc1` (centres unmarked) [Example 9, 7-(3,5-Dimethylisoxazol-4-yl)-2-methyl-4-phenyl-4,5-dihydroimidazo[1,5,4-de][1,4]benzoxazine], for which the pIC50 in assay [1] and in assay [2] was more than 7.00 throughout.

As to `Cc1noc(C)c1-c1ccc2c3c1OCC(c1ccccc1)n3c(=O)n2CCN1CCOCC1` (centres unmarked) [Example 10, 7-(3,5-Dimethylisoxazol-4-yl)-1-(2-morpholin-4-ylethyl)-4-phenyl-4,5-dihydroimidazo[1,5,4-de][1,4]benzoxazin-2(1H)-one], the figures for the pIC50 in assay [1] and in assay [2] were 6.00 to 7.00 and more than 7.00, respectively.

As for `Cc1n[nH]c(C)c1-c1ccc2[nH]c(=O)n3c2c1OCC3c1ccccc1` (centres unmarked) [Example 11, 7-(3,5-Dimethyl-1H-pyrazol-4-yl)-4-phenyl-4,5-dihydroimidazo[1,5,4-de][1,4]benzoxazin-2(1H)-one], the pIC50 is 5.00 to 6.00 in assay [1] and 6.00 to 7.00 in assay [2].

As for `Cc1n[nH]cc1-c1ccc2[nH]c(=O)n3c2c1OCC3c1ccccc1` (centres unmarked) [Example 12, 7-(3-Methyl-1H-pyrazol-4-yl)-4-phenyl-4,5-dihydroimidazo[1,5,4-de][1,4]benzoxazin-2(1H)-one], the pIC50 in assay [1] is 6.00 to 7.00; in assay [2], more than 7.00.

Turning to `Cc1noc(C)c1-c1ccc2[nH]c(=O)n3c2c1OCC3C1CCCCC1` (centres unmarked) [Example 17, 4-Cyclohexyl-7-(3,5-dimethylisoxazol-4-yl)-4,5-dihydroimidazo[1,5,4-de][1,4]benzoxazin-2(1H)-one], the pIC50 in assay [1] and in assay [2] was more than 7.00 throughout.

For the compound `Cc1noc(C)c1-c1ccc2[nH]c(=O)n3c2c1OCC3c1nccs1` (centres unmarked) [Example 21, 7-(3,5-Dimethylisoxazol-4-yl)-4-(1,3-thiazol-2-yl)-4,5-dihydroimidazo[1,5,4-de][1,4]benzoxazin-2(1H)-one], the pIC50 in assay [1] and in assay [2] was more than 7.00 throughout.

For `CCNC(=O)COc1ccccc1C1COc2c(-c3c(C)noc3C)ccc3[nH]c(=O)n1c23` (centres unmarked) [Example 22, 2-{2-[7-(3,5-Dimethylisoxazol-4-yl)-2-oxo-1,2,4,5-tetrahydroimidazo[1,5,4-de][1,4]benzoxazin-4-yl]phenoxy}-N-ethylacetamide], the pIC50 in assay [1] and in assay [2] was more than 7.00 in each case.

Take `Cc1noc(C)c1-c1ccc2nc(NC(C)C)n3c2c1OCC3c1ccccc1` (centres unmarked) [Example 25, 7-(3,5-Dimethylisoxazol-4-yl)-N-isopropyl-4-phenyl-4,5-dihydroimidazo[1,5,4-de][1,4]benzoxazin-2-amine]: the pIC50 in assay [1] and in assay [2] was more than 7.00 in each case.

In the case of `Cc1noc(C)c1-c1cc(C#N)c2[nH]c(=O)n3c2c1OCC3c1ccccn1` (centres unmarked) [Example 269A, 7-(3,5-dimethylisoxazol-4-yl)-2-oxo-4-pyridin-2-yl-1,2,4,5-tetrahydroimidazo[1,5,4-de][1,4]benzoxazine-9-carbonitrile], the pIC50 in assay [3] and in assay [4] was more than 7.00 each time.

Consider `Cc1noc(C)c1-c1cc(C#N)c2[nH]c(=O)n3c2c1OCC3c1ccccn1` (centres unmarked) [Example 269B, 7-(3,5-dimethylisoxazol-4-yl)-2-oxo-4-pyridin-2-yl-1,2,4,5-tetrahydroimidazo[1,5,4-de][1,4]benzoxazine-9-carbonitrile], for which the pIC50 in assay [3] and in assay [4] was 5.00 to 6.00 throughout.
